“Also recorded” adds a separate entry of the source.
Tests used:
[1] = system: patients with advanced solid tumours; experiment: Treatment-emergent adverse events (NCI CTCAE version 4.0); assay type: in vivo, human
Description: (§1) The sample size was based on clinical justification.

[2] = Veliparib pharmacokinetics, cycle 1 day 15; assay type: in vivo, human; details: co-administered with FOLFIRI; 10–270 mg BID
Description: In dose-escalation cohorts, blood samples were collected on day 15 of cycle 1 for veliparib PK, and on days 1 and 15 of cycle 1 for PK assessment of the FOLFIRI components irinotecan, SN-38, folinic acid (leucovorin), and 5-FU.

advanced solid tumours = experiment: Exploratory efficacy: ORR (RECIST version 1.1), TTP, DOR; assay type: in vivo, human
Description: as §1

[3] = system: patients with advanced solid tumours; set-up: method as in PMID 26842236; details: veliparib 40 mg BID days 1–14 of a 21-day cycle with irinotecan 100 mg/m^2 day 1 and 8; cited from earlier work
[4] = system: triple-negative breast cancer; set-up: method as in doi:10.1158/1538-7445.AM2015-CT325; details: veliparib in combination with irinotecan; cohort with germline BRCA mutation; cited from earlier work
[5] = veliparib plus FOLFIRI, Combined RP2D n = 31, all grades
[6] = veliparib plus FOLFIRI, Combined RP2D n = 31, grade 3/4
[7] = veliparib plus FOLFIRI, Part 1 n = 67, all grades
[8] = veliparib plus FOLFIRI, Part 1 n = 67, grade 3/4
[9] = veliparib plus FOLFIRI, Parts 2 and 3 n = 25, all grades
[10] = veliparib plus FOLFIRI, Parts 2 and 3 n = 25, grade 3/4
[11] = veliparib plus FOLFIRI, Total n = 92, all grades
[12] = veliparib plus FOLFIRI, Total n = 92, grade 3/4
[13] = veliparib plus FOLFIRI, all treated patients (92)
[14] = veliparib plus FOLFIRI, all treated patients (92), any grade

C[C@]1(c2nc3c(C(N)=O)cccc3[nH]2)CCCN1 [veliparib, Veliparib]
Patients with TEAEs that led to death within 30 days of the last veliparib dose ([1]; considered not related or probably not related to veliparib and FOLFIRI): Four | Patients with a TEAE that led to death within 63 days after the last veliparib dose ([1]; disease progression, considered not related or probably not related): One | TEAE Alopecia [1, 5]: 16 (51.6) n (%) | TEAE Anaemia [1, 5]: 15 (48.3) n (%) | TEAE Constipation [1, 5]: 9 (29.0) n (%) | TEAE Decreased appetite [1, 5]: 7 (22.5) n (%) | TEAE Diarrhoea [1, 5]: 17 (54.8) n (%) | TEAE Fatigue [1, 5]: 13 (41.9) n (%) | TEAE Nausea [1, 5]: 23 (74.1) n (%) | TEAE Neutropenia [1, 5]: 25 (80.6) n (%) | TEAE Vomiting [1, 5]: 14 (45.1) n (%) | TEAE Alopecia [1, 6]: 0 (0.0) n (%) | TEAE Anaemia [1, 6]: 5 (16.1) n (%) | TEAE Constipation [1, 6]: 0 (0.0) n (%) | TEAE Decreased appetite [1, 6]: 0 (0.0) n (%) | TEAE Diarrhoea [1, 6]: 5 (16.1) n (%) | TEAE Fatigue [1, 6]: 0 (0.0) n (%) | TEAE Nausea [1, 6]: 1 (3.2) n (%) | TEAE Neutropenia [1, 6]: 17 (54.8) n (%) | TEAE Vomiting [1, 6]: 1 (3.2) n (%) | TEAE Alopecia [1, 7]: 31 (46.2) n (%) | TEAE Anaemia [1, 7]: 27 (40.2) n (%) | TEAE Constipation [1, 7]: 18 (26.8) n (%) | TEAE Decreased appetite [1, 7]: 18 (26.8) n (%) | TEAE Diarrhoea [1, 7]: 40 (59.7) n (%) | TEAE Fatigue [1, 7]: 27 (40.2) n (%) | TEAE Nausea [1, 7]: 41 (61.1) n (%) | TEAE Neutropenia [1, 7]: 41 (61.1) n (%) | TEAE Vomiting [1, 7]: 32 (47.7) n (%) | TEAE Alopecia [1, 8]: 0 (0.0) n (%) | TEAE Anaemia [1, 8]: 7 (10.4) n (%) | TEAE Constipation [1, 8]: 1 (1.4) n (%) | TEAE Decreased appetite [1, 8]: 0 (0.0) n (%) | TEAE Diarrhoea [1, 8]: 5 (7.4) n (%) | TEAE Fatigue [1, 8]: 3 (4.4) n (%) | TEAE Nausea [1, 8]: 2 (2.9) n (%) | TEAE Neutropenia [1, 8]: 26 (38.8) n (%) | TEAE Vomiting [1, 8]: 3 (4.4) n (%) | TEAE Alopecia [1, 9]: 9 (36.0) n (%) | TEAE Anaemia [1, 9]: 14 (56.0) n (%) | TEAE Constipation [1, 9]: 10 (40.0) n (%) | TEAE Decreased appetite [1, 9]: 13 (52.0) n (%) | TEAE Diarrhoea [1, 9]: 16 (64.0) n (%) | TEAE Fatigue [1, 9]: 17 (68.0) n (%) | TEAE Nausea [1, 9]: 15 (60.0) n (%) | TEAE Neutropenia [1, 9]: 20 (80.0) n (%) | TEAE Vomiting [1, 9]: 12 (48.0) n (%) | TEAE Alopecia [1, 10]: 0 (0.0) n (%) | TEAE Anaemia [1, 10]: 2 (8.0) n (%) | TEAE Constipation [1, 10]: 1 (4.0) n (%) | TEAE Decreased appetite [1, 10]: 0 (0.0) n (%) | TEAE Diarrhoea [1, 10]: 0 (0.0) n (%) | TEAE Fatigue [1, 10]: 0 (0.0) n (%) | TEAE Nausea [1, 10]: 1 (4.0) n (%) | TEAE Neutropenia [1, 10]: 13 (52.0) n (%) | TEAE Vomiting [1, 10]: 2 (8.0) n (%) | TEAE Alopecia [1, 11]: 40 (43.5) n (%) | TEAE Anaemia [1, 11]: 41 (44.6) n (%) | TEAE Constipation [1, 11]: 28 (30.4) n (%) | TEAE Decreased appetite [1, 11]: 31 (33.6) n (%) | TEAE Diarrhoea [1, 11]: 56 (60.9) n (%) | TEAE Fatigue [1, 11]: 44 (47.8) n (%) | TEAE Nausea [1, 11]: 56 (60.9) n (%) | TEAE Neutropenia [1, 11]: 61 (66.3) n (%) | TEAE Vomiting [1, 11]: 44 (47.8) n (%) | TEAE Alopecia [1, 12]: 0 (0.0) n (%) | TEAE Anaemia [1, 12]: 9 (9.8) n (%) | TEAE Decreased appetite [1, 12]: 0 (0.0) n (%) | TEAE Diarrhoea [1, 12]: 5 (5.4) n (%) | TEAE Fatigue [1, 12]: 3 (3.2) n (%) | TEAE Nausea [1, 12]: 3 (3.2) n (%) | TEAE Neutropenia [1, 12]: 39 (42.4) n (%) | TEAE Vomiting [1, 12]: 5 (5.4) n (%) | Grade 3 or 4 TEAE anaemia [1, 13]: 9.8% | Grade 3 or 4 TEAE neutropenia [1, 13]: 42.4% | Patients who discontinued veliparib due to TEAEs [1, 13]: 5.4% | Patients with ≥1 grade 3 or 4 TEAEs [1, 13]: 67.4% | Patients with ≥1 treatment-emergent serious AEs (SAEs) [1, 13]: 38.0% | Serious AE PD [1, 13]: 2.2% | Serious AE abdominal pain [1, 13]: 2.2% | Serious AE dehydration [1, 13]: 2.2% | Serious AE febrile neutropenia [1, 13]: 2.2% | Serious AE intestinal obstruction [1, 13]: 2.2% | Serious AE malignant neoplasm progression [1, 13]: 2.2% | Serious AE nausea [1, 13]: 2.2% | Serious AE pyrexia [1, 13]: 4.3% | Serious AE vomiting [1, 13]: 3.3% | TEAE alopecia, patients [1, 14]: 43.5% | TEAE anaemia, patients [1, 14]: 44.6% | TEAE diarrhoea, patients [1, 14]: 60.9% | TEAE fatigue, patients [1, 14]: 47.8% | TEAE nausea, patients [1, 14]: 60.9% | TEAE neutropenia, patients [1, 14]: 66.3% | TEAE vomiting, patients [1, 14]: 47.8% | Patients who experienced one or more TEAEs ([1]; veliparib plus FOLFIRI, treated patients (92)): All treated patients | Dose proportionality of veliparib exposure (Cmax, AUC) [2]: approximately dose-proportional; also recorded: approximate dose proportionality | Median time to disease progression (TTP) (advanced solid tumours; expanded safety cohort, colorectal (N=6)): 195 days | 6-month TTP rate (advanced solid tumours; expanded safety cohort, colorectal cancer (n = 6), veliparib RP2D plus FOLFIRI): 60.0% | Median time to disease progression (TTP) (advanced solid tumours; expanded safety cohort, gastric (N=14)): 223 days | 6-month TTP rate (advanced solid tumours; expanded safety cohort, gastric cancer (n = 14), veliparib RP2D plus FOLFIRI): 53.8% | Complete response (CR) (advanced solid tumours; veliparib plus FOLFIRI): not achieved by any patients | Patients with a partial response (advanced solid tumours; veliparib plus FOLFIRI): Fifteen | Objective response rate (ORR) (advanced solid tumours; veliparib plus FOLFIRI, 85 patients with measurable lesions at baseline): 17.6% | ORR (CR + PR) (advanced solid tumours; veliparib plus FOLFIRI, Breast n = 8): 2 (25.0) (3.2–65.1) n (%) (95% CI) | ORR (CR + PR) (advanced solid tumours; veliparib plus FOLFIRI, Colorectal n = 9): 2 (22.2) (2.8–60.0) n (%) (95% CI) | ORR (CR + PR) (advanced solid tumours; veliparib plus FOLFIRI, Gastric n = 20): 3 (15.0) (3.2–37.9) n (%) (95% CI) | ORR (CR + PR) (advanced solid tumours; veliparib plus FOLFIRI, Other n = 27): 3 (11.1) (2.4–29.2) n (%) (95% CI) | ORR (CR + PR) (advanced solid tumours; veliparib plus FOLFIRI, Ovarian n = 7): 3 (42.9) (9.9–81.6) n (%) (95% CI) | ORR (CR + PR) (advanced solid tumours; veliparib plus FOLFIRI, Overall n = 85, measurable lesions at baseline): 15 (17.6) (10.2–27.4) n (%) (95% CI) | ORR (CR + PR) (advanced solid tumours; veliparib plus FOLFIRI, Pancreatic n = 14): 2 (14.3) (1.8–42.8) n (%) (95% CI) | Median time to disease progression (TTP) (advanced solid tumours; veliparib plus FOLFIRI, all dosed patients, colorectal (N=10)): 195 days | Median time to disease progression (TTP) (advanced solid tumours; veliparib plus FOLFIRI, all dosed patients, gastric (N=20)): 157 days | Median time to disease progression (TTP) (advanced solid tumours; veliparib plus FOLFIRI, all dosed patients, ovarian (N=9)): 361 days | Objective response rate (ORR) (advanced solid tumours; veliparib plus FOLFIRI, breast cancer): 25.0% | 6-month TTP rate (advanced solid tumours; veliparib plus FOLFIRI, breast cancer (n = 9)): 22.2% | Objective response rate (ORR) (advanced solid tumours; veliparib plus FOLFIRI, colorectal cancer): 22.2% | 6-month TTP rate (advanced solid tumours; veliparib plus FOLFIRI, colorectal cancer (n = 10)): 50.8% | 6-month TTP rate (advanced solid tumours; veliparib plus FOLFIRI, gastric cancer (n = 20)): 45.9% | 6-month TTP rate (advanced solid tumours; veliparib plus FOLFIRI, other cancers (n = 30)): 21.2% | Objective response rate (ORR) (advanced solid tumours; veliparib plus FOLFIRI, ovarian cancer (n = 7)): 42.9% | 6-month TTP rate (probability of remaining progression-free for 6 months) (advanced solid tumours; veliparib plus FOLFIRI, ovarian cancer (n = 9)): 65% | Objective response rate (ORR) (advanced solid tumours; veliparib plus FOLFIRI, pancreatic cancer): 14.3% | 6-month TTP rate (advanced solid tumours; veliparib plus FOLFIRI, pancreatic cancer (n = 14)): 26.8% | Median duration of overall response (DOR) (advanced solid tumours; veliparib plus FOLFIRI, patients who received irinotecan 150 mg/m^2): 560 days | Response rates (advanced solid tumours; veliparib plus FOLFIRI, previously treated patient population): over 15% | Tolerability [3]: well tolerated | Preliminary response rate [4]: 88%

Source: article PMC5933261, “A phase 1 dose-escalation study of veliparib with bimonthly FOLFIRI in patients with advanced solid tumours” (British Journal of Cancer, 2018)
